# Reference: ChEMBL document CHEMBL2346618, “Synthesis and evaluation against hepatitis C virus of 7-deaza analogues of 2'-C-methyl-6-O-methyl guanosine nucleoside and L-Alanine ester phosphoramidates” (Bioorg Med Chem Lett, 2013)
# pEC50: −log10 of the molar value.
# Tests used:
# [1] = (§1) Cytotoxicity against human HuH7 cells; type: cell-based, Huh-7; settings: HuH7 cells
# Hepatitis C virus = assay: Antiviral activity against Hepatitis C virus assessed as inhibition of viral replication; type: functional, organism-based, Hepacivirus hominis
# [2] = Prodrug activation in trizma buffer assessed as formation of (2S)-2-((((2R,3R,4R,5R)-5-(2-amino-4-methoxy-7H-pyrrolo[2,3-d]pyrimidin-7-yl)-3,4-dihydroxy-4-methyltetrahydrofuran-2-yl)methoxy)(hydroxy)phosphorylamino)propanoic acid by NMR assay in presence of carboxypeptidase Y
# Huh-7 [3] = assay: Prodrug activation in human HuH7 cell lysate assessed as formation of ((2R,3R,4R,5R)-5-(2-amino-4-methoxy-7H-pyrrolo[2,3-d]pyrimidin-7-yl)-3,4-dihydroxy-4-methyltetrahydrofuran-2-yl)methyl dihydrogen phosphate after 48 hrs by NMR assay; type: cell-based; settings: huh-7, 48 h
# [4] = Prodrug activation in phosphate buffer at pH 7.4 after 4 hrs by UV analysis in presence of calf adenosine deaminase; settings: pH 7.4, 4 h
# Huh-7 [5] = assay: Prodrug activation in human HuH7 cell lysate assessed as formation of ((2R,3R,4R,5R)-5-(2-amino-4-methoxy-7H-pyrrolo[2,3-d]pyrimidin-7-yl)-3,4-dihydroxy-4-methyltetrahydrofuran-2-yl)methyl dihydrogen phosphate by NMR assay; type: cell-based
# Huh-7 [6] = assay: as §1; type: cell-based; settings: huh-7
Compound,CC50 [1] [µM],pEC50 (Hepatitis C virus; Hepatitis C virus),other results
"COc1nc(N)nc2c1ccn2[C@@H]1O[C@H](COP(=O)(N[C@@H](C)C(=O)OC2CCCCC2)Oc2cccc3ccccc23)[C@@H](O)[C@@]1(C)O (single isomer, unassigned; slow eluting)",13,5.05,
COc1nc(N)nc2c1ccn2[C@@H]1O[C@H](COP(=O)(N[C@@H](C)C(=O)OCC(C)(C)C)Oc2cccc3ccccc23)[C@@H](O)[C@@]1(C)O (some centres undefined),27,4.89,Drug metabolism [2]: Active; Drug metabolism (Huh-7 [3]): Not Active
COc1nc(N)nc2c1ncn2[C@@H]1O[C@H](COP(=O)(N[C@@H](C)C(=O)OC2CCCCC2)Oc2cccc3ccccc23)[C@@H](O)[C@@]1(C)O (some centres undefined),6,7.52,
COc1nc(N)nc2c1ncn2[C@@H]1O[C@H](CO)[C@@H](O)[C@@]1(C)O [BETA-2'-C-METHYL-6-O-METHYL GUANOSINE],> 100,5.52,
C[C@@]1(O)[C@H](O)[C@@H](CO)O[C@H]1n1ccc2c(N)ncnc21 [BETA-2'-C-METHYL-7-DEAZA-ADENOSINE],> 100,6.60,
COc1nc(N)nc2c1ccn2[C@@H]1O[C@H](COP(=O)(N[C@@H](C)C(=O)OCc2ccccc2)Oc2cccc3ccccc23)[C@@H](O)[C@@]1(C)O (some centres undefined),27,4.56,
COc1nc(N)nc2c1ncn2[C@@H]1O[C@H](COP(=O)(N[C@@H](C)C(=O)OCC(C)(C)C)Oc2cccc3ccccc23)[C@@H](O)[C@@]1(C)O (some centres undefined) [BMS-986094],6,8.00,
COc1nc(N)nc2c1ccn2[C@@H]1O[C@H](CO)[C@@H](O)[C@@]1(C)O,> 100,< 4.00,Stability [4]: Stable
COc1nc(N)nc2c1ccn2[C@@H]1O[C@H](COP(=O)(O)O)[C@@H](O)[C@@]1(C)O,,,Drug metabolism (Huh-7 [5]): Active
"COc1nc(N)nc2c1ccn2[C@@H]1O[C@H](COP(=O)(N[C@@H](C)C(=O)OC2CCCCC2)Oc2cccc3ccccc23)[C@@H](O)[C@@]1(C)O (single isomer, unassigned; fast eluting)",,,CC50 (Huh-7 [6]): 18 µM; pEC50 (Hepatitis C virus): 4.88
COc1nc(N)nc2c1ncn2[C@@H]1O[C@H](COP(=O)(N[C@@H](C)C(=O)OCc2ccccc2)Oc2cccc3ccccc23)[C@@H](O)[C@@]1(C)O (some centres undefined),11,7.70,
